How the values were obtained:
Format in all cases: in vivo
[1] = system: redroot pigweed (Amaranthus retroflexus, AMARE); experiment: Pre-emerge test, greenhouse herbicide activity screening; conditions: pre-emerge, phytotoxicity rating 0-100 at 14 days after application
Summary of the method: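 Visual ratings on a 0-100 scale (0 no damage, 100 all plants dead) were taken at 14 days after treatment. Rates of 15-1000 g ai/ha in acetone, 187 l/ha, were sprayed onto soil one day after planting (pre-emerge) or onto 2-3 leaf plants with 0.25% v/v surfactant (post-emerge).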

[2] = system: barnyardgrass (Echinochloa crus-galli, ECHCG); experiment: as above; conditions: pre-emerge, phytotoxicity rating 0-100 at 14 days after application
Summary of the method: (§1)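 Rating: 0–100 visual injury, 14 DAA. Application: acetone, 187 l/ha, 15–1000 g ai/ha, flat-fan track sprayer with nozzle 40–45 cm above soil or canopy. Post-emerge runs used 0.25% v/v surfactant on 2–3 leaf plants.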

[3] = system: green foxtail (Setaria viridis, SETVI); experiment: as above; conditions: pre-emerge, phytotoxicity rating 0-100 at 14 days after application
Summary of the method: as §1

[4] = system: ivyleaf morningglory (Ipomoea hederacea, IPOHE); experiment: as above; conditions: pre-emerge, phytotoxicity rating 0-100 at 14 days after application
Summary of the method: as §1

[5] = system: johnsongrass (Sorghum halepense, SORHA); experiment: as above; conditions: pre-emerge, phytotoxicity rating 0-100 at 14 days after application
Summary of the method: as §1

[6] = system: lambsquarters (Chenopodium album, CHEAL); experiment: as above; conditions: pre-emerge, phytotoxicity rating 0-100 at 14 days after application
Summary of the method: as §1

[7] = system: large crabgrass (Digitaria sanguinalis, DIGSA); experiment: as above; conditions: pre-emerge, phytotoxicity rating 0-100 at 14 days after application
Summary of the method: as §1

[8] = system: sicklepod (Cassia obtusifolia, CASOB); experiment: as above; conditions: pre-emerge, phytotoxicity rating 0-100 at 14 days after application
Summary of the method: as §1

[9] = system: velvetleaf (Abutilon theophrasti, ABUTH); experiment: as above; conditions: pre-emerge, phytotoxicity rating 0-100 at 14 days after application
Summary of the method: as §1

[10] = system: field corn (Zea mays L., var. Dekalb 535, CORN); experiment: Pre-emerge test, crop safety; conditions: crop damage, pre-emerge, phytotoxicity rating 0-100 at 14 days after application
Summary of the method: (§2)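 Herbicidal damage is scored 0 (none) to 100 (complete plant death) two weeks after a simulated field spray. Rates span 15–1000 g ai/ha, delivered in acetone at 187 l/ha. For post-emergence treatments, plants have 2–3 leaves and the spray carries 0.25% v/v non-ionic surfactant.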

[11] = system: upland rice (Oryza sp., var. Tebonnet, RICE); experiment: Pre-emerge test, crop safety; conditions: crop damage, pre-emerge, phytotoxicity rating 0-100 at 14 days after application
Summary of the method: as §2

[12] = system: barnyardgrass (Echinochloa crus-galli, ECHCG); experiment: Post-emerge test, greenhouse herbicide activity screening; conditions: post-emerge, phytotoxicity rating 0-100 at 14 days after application
Summary of the method: (§3)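 Compounds in acetone were track-sprayed at 15–1000 g ai/ha: pre-emergence onto soil sown the previous day, then top-watered to incorporate and later bottom-watered; post-emergence onto 2–3 leaf plants with 0.25% v/v surfactant, bottom-watered only. Ratings on a 0–100 phytotoxicity scale were taken at day 14.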

[13] = system: green foxtail (Setaria viridis, SETVI); experiment: as above; conditions: post-emerge, phytotoxicity rating 0-100 at 14 days after application
Summary of the method: as §3

[14] = system: ivyleaf morningglory (Ipomoea hederacea, IPOHE); experiment: as above; conditions: post-emerge, phytotoxicity rating 0-100 at 14 days after application
Summary of the method: as §3

[15] = system: johnsongrass (Sorghum halepense, SORHA); experiment: as above; conditions: post-emerge, phytotoxicity rating 0-100 at 14 days after application
Summary of the method: as §3

[16] = system: lambsquarters (Chenopodium album, CHEAL); experiment: as above; conditions: post-emerge, phytotoxicity rating 0-100 at 14 days after application
Summary of the method: as §3

[17] = system: large crabgrass (Digitaria sanguinalis, DIGSA); experiment: as above; conditions: post-emerge, phytotoxicity rating 0-100 at 14 days after application
Summary of the method: as §3

[18] = system: redroot pigweed (Amaranthus retroflexus, AMARE); experiment: as above; conditions: post-emerge, phytotoxicity rating 0-100 at 14 days after application
Summary of the method: as §3

[19] = system: sicklepod (Cassia obtusifolia, CASOB); experiment: as above; conditions: post-emerge, phytotoxicity rating 0-100 at 14 days after application
Summary of the method: as §3

[20] = system: velvetleaf (Abutilon theophrasti, ABUTH); experiment: as above; conditions: post-emerge, phytotoxicity rating 0-100 at 14 days after application
Summary of the method: as §3

[21] = system: field corn (Zea mays L., var. Dekalb 535, CORN); experiment: Post-emerge test, crop safety; conditions: post-emerge, crop damage rating 0-100 at 14 days after application
Summary of the method: (§4)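 Plants grown in 10 cm pots of sandy loam mix received acetone-dissolved compounds through a moving flat-fan nozzle. Doses ranged from 15 to 1000 g ai/ha. Pre-emerge pots were seeded one day earlier, post-emerge pots 8–21 days earlier. Fourteen days on, each pot was graded 0–100 for damage.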

[22] = system: upland rice (Oryza sp., var. Tebonnet, RICE); experiment: Post-emerge test, crop safety; conditions: post-emerge, crop damage rating 0-100 at 14 days after application
Summary of the method: as §4

With `CCC(=O)Nc1c(Cl)cc(Cl)c(-n2nc(C)n(C(F)F)c2=O)c1N` [Compound 6-19] the “Pre-emerge Herbicidal Activity AMARE” value ([1]; rate 63 g ai/ha) was 30, the “Pre-emerge Herbicidal Activity AMARE” value ([1]; rate 250 g ai/ha) was 70 and the “Pre-emerge Herbicidal Activity ECHCG” value ([2]; rate 63 g ai/ha) was 0. For the same molecule, the “Pre-emerge Herbicidal Activity ECHCG” value ([2]; rate 250 g ai/ha) was 0, the “Pre-emerge Herbicidal Activity SETVI” value ([3]; rate 63 g ai/ha) was 0 and the “Pre-emerge Herbicidal Activity SETVI” value ([3]; rate 250 g ai/ha) was 10. For the same molecule, the “Pre-emerge Herbicidal Activity IPOHE” value ([4]; rate 63 g ai/ha) was 0, the “Pre-emerge Herbicidal Activity IPOHE” value ([4]; rate 250 g ai/ha) was 0 and the “Pre-emerge Herbicidal Activity SORHA” value ([5]; rate 63 g ai/ha) was 0. For the same molecule, the “Pre-emerge Herbicidal Activity SORHA” value ([5]; rate 250 g ai/ha) was 0, the “Pre-emerge Herbicidal Activity CHEAL” value ([6]; rate 63 g ai/ha) was 70 and the “Pre-emerge Herbicidal Activity CHEAL” value ([6]; rate 250 g ai/ha) was 90. For the same molecule, the “Pre-emerge Herbicidal Activity DIGSA” value ([7]; rate 63 g ai/ha) was 0, the “Pre-emerge Herbicidal Activity DIGSA” value ([7]; rate 250 g ai/ha) was 0 and the “Pre-emerge Herbicidal Activity CASOB” value ([8]; rate 63 g ai/ha) was 0. For the same molecule, the “Pre-emerge Herbicidal Activity CASOB” value ([8]; rate 250 g ai/ha) was 0, the “Pre-emerge Herbicidal Activity ABUTH” value ([9]; rate 63 g ai/ha) was 20 and the “Pre-emerge Herbicidal Activity ABUTH” value ([9]; rate 250 g ai/ha) was 50. The “Pre-emerge Herbicidal Activity CORN” value ([10]; rate 63 g ai/ha) was 0, the “Pre-emerge Herbicidal Activity CORN” value ([10]; rate 250 g ai/ha) was 0 and the “Pre-emerge Herbicidal Activity RICE” value ([11]; rate 63 g ai/ha) was 0. The “Pre-emerge Herbicidal Activity RICE” value ([11]; rate 250 g ai/ha) was 0, the “Post-emerge Herbicidal Activity ECHCG” value ([12]; 63 g ai/ha) was 0 and the “Post-emerge Herbicidal Activity ECHCG” value ([12]; 250 g ai/ha) was 0. The “Post-emerge Herbicidal Activity SETVI” value ([13]; 63 g ai/ha) was 0, the “Post-emerge Herbicidal Activity SETVI” value ([13]; 250 g ai/ha) was 0 and the “Post-emerge Herbicidal Activity IPOHE” value ([14]; 63 g ai/ha) was 0. The “Post-emerge Herbicidal Activity IPOHE” value ([14]; 250 g ai/ha) was 30, the “Post-emerge Herbicidal Activity SORHA” value ([15]; 63 g ai/ha) was 0 and the “Post-emerge Herbicidal Activity SORHA” value ([15]; 250 g ai/ha) was 0. The “Post-emerge Herbicidal Activity CHEAL” value ([16]; 63 g ai/ha) was 0, the “Post-emerge Herbicidal Activity CHEAL” value ([16]; 250 g ai/ha) was 60 and the “Post-emerge Herbicidal Activity DIGSA” value ([17]; 63 g ai/ha) was 0. The “Post-emerge Herbicidal Activity DIGSA” value ([17]; 250 g ai/ha) was 0, the “Post-emerge Herbicidal Activity AMARE” value ([18]; 63 g ai/ha) was 0 and the “Post-emerge Herbicidal Activity AMARE” value ([18]; 250 g ai/ha) was 30. The “Post-emerge Herbicidal Activity CASOB” value ([19]; 63 g ai/ha) was 0, the “Post-emerge Herbicidal Activity CASOB” value ([19]; 250 g ai/ha) was 0 and the “Post-emerge Herbicidal Activity ABUTH” value ([20]; 63 g ai/ha) was 0. The “Post-emerge Herbicidal Activity ABUTH” value ([20]; 250 g ai/ha) was 50, the “Post-emerge Herbicidal Activity CORN” value ([21]; 63 g ai/ha) was 0 and the “Post-emerge Herbicidal Activity CORN” value ([21]; 250 g ai/ha) was 0. For the same molecule, the “Post-emerge Herbicidal Activity RICE” value ([22]; 63 g ai/ha) was 0 and the “Post-emerge Herbicidal Activity RICE” value ([22]; 250 g ai/ha) was 0.

Source: US6355799B1, “Substituted benzene compounds, process for their preparation, and herbicidal and defoliant compositions containing them” (ISK Americas Incorporated, priority 1997, dated 2002)
